Data: patent US20240358829A1, “Lymphocyte Population and Methods for Producing Same” (AVM Biotechnology, LLC, priority 2021, published 2024)
Several values for one entry are separate records, joined by “and”; a condition that tells them apart may be missing. Equal values may be shown once. Entries after “also recorded” stand apart in the source; their conditions may differ. Read-outs that look alike come from different tables or passages of the source.

Legend:
[1] = system: peripheral blood mononuclear cells or single cell splenocytes; assay: In vitro apoptosis of mononuclear cells or splenocytes incubated with AVM0703; assay type: cell-based, mouse; settings: concentrations equivalent to in vivo peak blood concentrations of acute high dose, out to 72 hours
[2] = Compassionate use patients treated with AVM0703; assay type: in vivo, human
[3] = system: AVM-NKT cells (CD3highCD49b+); assay type: in vivo, mouse
Excerpt: Mice were anesthetized with isoflurane gas.

[4] = system: hCD45+CD56+γδTCR+invTCR+ cells; assay: Humanized mice experiments LYDEP 43 and 45, flow cytometry of blood and bone marrow; assay type: in vivo, mouse
Experimental: (§1) Female huNOG-EXL mice (n=6) were obtained from Taconic Bioscience (Germantown, NY). Female huCD34-NCG mice (n=8) were obtained from Charles River (Wilmington, MA). Mice from both facilities were acclimated to laboratory conditions for at least 5-6 days.
(§2) After first (03/01/2021) and second dose 1 week later (03/08/2021), when mice reached predetermined time point, they were bled up to 70 μL of blood/mouse via cheek puncture. The blood was analyzed via flow cytometry. After third dose 28 days after the previous dose (on Apr. 5, 2021), when mice reached the study time point, they were euthanized under standard operating procedure summarized here: Mice were anesthetized with isoflurane gas.
Spleen, Thymus, femurs, and sternum were collected for all mice. Spleen and thymus were processed into single cell suspension for analysis via flow cytometry. Bones were cleaned of muscle using gauze soaked with 70% ethanol and processed for bone marrow to analyze via flow cytometry. Pancreas and colon dissection were performed according to video and instructional JoVE files. The feces were expelled via administering ice-cold PBS with a 22-gauge gavage tube from colon. Other organs like small intestines, cecum, kidneys, lungs, and liver were also collected. All organ weights were recorded after removing excess liquid from the exterior. Soft organs were first fixed in 4% PFA and then transferred to 70% ethanol 24 hrs later and stored at 4° C. Bones were stored directly in 70% ethanol at 4° C. Blood was processed for flow cytometry analysis, and serum collection.
(§3) All flow cytometry was performed in house. Blood, spleen, thymus, and bone marrow were processed via standard staining protocol for flow cytometry. MACSQUANT 16 was used for flow cytometry. Antibody panels slightly varied between first, second and third dose. Markers in the flow panel after first dose analysis included Live/Dead, hCD45, mCD45, hCD56, hTCRgd, hCD3, hCD8, hCD16, hCD19, hCD14. Markers in the flow panel after second dose included all the above, plus hTCRab and hiTCR. In the blood analysis after second dose, 7AAD, CD14 and CD19 were included together in a dump channel. […] For the third dose panel design, when full sac was performed, all markers mentioned above were assigned unique channels to avoid overlap, but TCRab was not included in the final panel due to open channel limitations.
(§4) For cheek bleeds, 70 ul of blood was collected in EDTA coated microtainer and proceeded for immunostaining. […] Blood was stained for live dead marker for 10 min at Room temperature and then for the surface antibodies mentioned above for 20 minutes at room temperature in dark. RBCs were lysed with BD FACS lysing buffer and washed with DPBS and resuspended in 300 ul DBPS. 250 ul of sample was run on MACSquant 16 flow cytometer.

A20 B cell lymphoma = system: A20 B cell lymphoma
Experimental: FIG. 10B. […] Mice were inoculated with A20 lymphoma 2×10^6 cells in 100 μL of PBS mixed with 100 μL of chilled Matrigel into their flank. Three, 24 and 48 hours later mice were euthanized and tumors, blood, bone marrow and thymus were taken and made into single cell suspensions for flow cytometry detection of live A20 cells.

[5] = system: AVM-NKT cells (CD45 dim, CD56 very bright); assay: Flow cytometry of human subjects treated with acute high doses of dexamethasone (Example 7); assay type: in vivo; settings: prostate cancer patient, 6 mg/kg (fourth infusion)
R/R NHL = assay: AVM0703 R/R NHL clinical trial, clinical and PET/CT response, survival; assay type: in vivo, human
[6] = system: lymphocytes and myeloid cells; assay: Humanized mice experiments LYDEP 43 and 45, lymphoid versus myeloid cells (FSC vs SSC); assay type: in vivo, mouse
Experimental: as §1, §2, §3, §4

[7] = CR (Charles River) humanized mice, AVM0703 72 hrs
[8] = Tac (Taconic) humanized mice, AVM0703 72 hrs
[9] = blood, mouse 10 Taconic NOG-EXL, FIG. 24
[10] = patient 108-001, after the second 9 mg/kg infusion
[11] = mouse M88, after a first dose (32 mg/kg)

In the case of `C[C@@H]1C[C@H]2[C@@H]3CCC4=CC(=O)C=C[C@]4(C)[C@@]3(F)[C@@H](O)C[C@]2(C)[C@@]1(O)C(=O)COP(=O)(O)O` [AVM0703, dexamethasone sodium phosphate], the apoptosis [1] is reported as “no apoptosis was observed”, the “time to immune infiltrate (skin turning red over the tumor area)” value ([2]; compassionate use patient with CNS squamous cell carcinoma, after starting an 18 mg/kg infusion) is reported as at most 30 min and the neutrophil production ([2]; compassionate use patient without neutrophils for 6 years) is reported as “began making healthy active neutrophils”. The “location of induced AVM-NKT cells” value ([3]; naïve male Balb/c mice, 48 hours after doses about 29 mg/kg and higher (given as DP)) was “Induced in Bone Marrow and Fat Tissue”, the “location of induced AVM-NKT cells” value ([3]; naïve male C57Bl/6 mice) was “in blood” and the “Presence of AVM-NKT cells, 48 hrs spleen” value ([3]; naïve mice) was “positive”. The “hCD45+(CD56+gdTCR+ inTCR+)” value [4, 7] was 4.4% and 1.8% and 2.3% and 3.5%, the “hCD45+(CD56+gdTCR+)” value [4, 7] was 4.7% and 6.3% and 1.1% and 1.6% and the “hCD45+(CD56+gdTCR+)” value ([4]; CR (Charles River) humanized mice, AVM0703 96 hrs) was 1.1% and 0.4% and 4.4% and 1.4%. For the same compound, the “hCD45+(CD56+gdTCR+ inTCR+)” value [4, 8] was 0.7%, the “hCD45+(CD56+gdTCR+)” value [4, 8] was 10.5% and 3.4% and the “hCD45+(CD56+gdTCR+ inTCR+)” value ([4]; Tac (Taconic) humanized mice, AVM0703 96 hrs) was 22.6% and 41.9%. For the same compound, the “% of hCD45+CD56+gdTCR+ cells expressing invariant TCR” value ([4]; blood, CRL-NCG humanized mice, >18 mg/kg HED) was “More than 97%”, the “bi-specific immune cell mobilization, % of hCD45+ cells” value ([4]; blood, humanized mice, >18 mg/kg HED) was 2-12% and the “% of hCD45+ dim CD56+ gdTCR+ cells positive for CD8 and for CD16” value [4, 9] was “More than 80%”. For the same compound, the “CD56+ TCRγδ+ cells, % of hCD45+ cells” value [4, 9] was 12%, the “bi-specific immune cells, % of hCD45+ cells” value (“bi-specific immune cells, %” for short) ([4]; blood, mouse M1, CRL-NCG, >18 mg/kg HED) was 3.35% and the “bi-specific immune cells, %” value ([4]; blood, mouse M3, CRL-NCG, >18 mg/kg HED) was 4.13%. For the same compound, the “bi-specific immune cells, %” value ([4]; blood, mouse M5, CRL-NCG, >18 mg/kg HED) was 5.14%, the “bi-specific immune cells, %” value ([4]; blood, mouse M7, CRL-NCG, >18 mg/kg HED) was 2.37% and the “% of human CD45+CD56+ cells bispecific for TCRγδ and invariant TCR and CD16 positive” value ([4]; bone marrow, 48-60 hours after a third repeat dose of 32 mg/kg HED) was “More than 60%”. For the same compound, the “expression and mobilization of human CD56+γδTCR+invTCR+ immune cells” value ([4]; both vendors, all 6 umbilical cord blood donors, 32 mg/kg DP oral) was “induced the expression and mobilization”, the “% of bispecific γδTCR+invTCR+ bone marrow cells that are CD16+” value ([4]; humanized mice, >18 mg/kg HED) was “Around 90%” and the “bi-specific immune cells in bone marrow, % of hCD45+ cells” value ([4]; humanized mice, >18 mg/kg HED) was 0.3-8.5%. For the same compound, the “time of maximal ablation of A20 lymphoma implanted in the flank” value (A20 B cell lymphoma; 18 mg/kg HED) was about 3 h, the “Presence of AVM-NKT cells, 48 hrs blood” value (A20 B cell lymphoma; A20 model) was “negative” and the “growth of the A20 B cell lymphoma” value (A20 B cell lymphoma; HED 18.1 mg/kg PO, repeat dosing, vs placebo) was “significantly delays growth”. For the same compound, the “location of AVM-NKT cells” value (A20 B cell lymphoma; male tumor bearing Balb/c mice) was “in tumors”, the tumor necrosis (A20 B cell lymphoma; study A20-3, dose response curve, 18&26 mg/kg, doses on days 10, 17, 25, 32, 39) was 18&26 mg/kg 50-80% necrotic and the “novel CD45dim CD56 very bright cell population in blood” value ([5]; 1 hour after infusion, 6 mg/kg) was “observed; also recorded: evident”. The “novel CD45dim CD56 very bright cell population in blood” value ([5]; 3 hours after infusion) was “no longer observed”, the “Survival from 1st AVM0703 (months)” value (R/R NHL; patient 101-001, B-ALL, 6 mg/kg X1) was 4.8 months and the “Survival from 1st AVM0703 (months)” value (R/R NHL; patient 103-002, PTCL, 6 mg/kg X1) was 7 months. For the same compound, the “Survival from 1st AVM0703 (months)” value (R/R NHL; patient 103-004, T-ALL, 6 mg/kg X1) was 2.7 months, the “Survival from 1st AVM0703 (months)” value (R/R NHL; patient 103-005, MCL, 9 mg/kg X1) was 8.3 months and the “Survival from 1st AVM0703 (months)” value (R/R NHL; patient 103-006, DLBCL, 9 mg/kg X1, ongoing) was over 12.6 months. The “Survival from 1st AVM0703 (months)” value (R/R NHL; patient 103-007, MCL, 12 mg/kg X1, ongoing) was over 7.6 months, the “Survival from 1st AVM0703 (months)” value (R/R NHL; patient 103-008, DLBCL, 18 mg/kg X1, ongoing) was over 2.1 months and the clinical response (R/R NHL; patient 108-001, 9 mg/kg, day 3 after 1st infusion) was “restoration of vision”. The “Survival from 1st AVM0703 (months)” value (R/R NHL; patient 108-001, CNS B-ALL, 9 mg/kg X3, ongoing) was over 11.8 months, the CNS solid tumor (R/R NHL; [10]) was “not evident” and the “reduction of CSF blasts” value (R/R NHL; [10]) was 40%. For the same compound, the “response to the third infusion” value (R/R NHL; patient 108-001, third 9 mg/kg infusion) was “loss of response”, the “Survival from 1st AVM0703 (months)” value (R/R NHL; patient 108-002, PTCL, 18 mg/kg X1, ongoing) was over 10.3 months and the “central Lugano 28 Day” value (R/R NHL; patient 108-002, PTCL, 18 mg/kg, monotherapy) was “PR with SD”. The “Survival from 1st AVM0703 (months)” value (R/R NHL; patient 108-003, AITCL, 12 mg/kg X2, ongoing) was over 10.2 months, the “objective beneficial response (PET/CT, clinical chemistries, CBCs or clinical symptoms)” value (R/R NHL; patient 108-004, 12 mg/kg) was “did not have any objective clinical beneficial response; also recorded: did not have an objective beneficial response; also recorded: no response to treatment” and the “Survival from 1st AVM0703 (months)” value (R/R NHL; patient 108-004, DLBCL, 12 mg/kg X1, ongoing) was over 8 months. For the same compound, the “% of total mouse WBCs that were lymphoid cells, range” value ([6]; AVM0703 treated humanized mice) was 2%-20.4%, the “% of total mouse WBCs that were lymphoid cells, average” value ([6]; AVM0703 treated humanized mice (Placebo 12.7%)) was 10.62% and the myeloid cell production ([6]; humanized mice that largely lack myeloid compartments) was “induced myeloid cell production”. For the same compound, the “human lymphocytes, % of total human WBCs” value ([6]; mouse M01, after a first dose) was 67%, the “mouse lymphocytes, % of total WBCs” value ([6]; mouse M01, after a first dose) was 6.7% and the “total lymphocytes, % of total WBCs” value ([6]; mouse M01, after a first dose) was 35%. The “human lymphocytes, % of total human WBCs” value ([6]; mouse M03, after a first dose) was 47%, the “mouse lymphocytes, % of total WBCs” value ([6]; mouse M03, after a first dose) was 23.7% and the “total lymphocytes, % of total WBCs” value ([6]; mouse M03, after a first dose) was 40%. For the same compound, the “human lymphocytes, % of total human WBCs” value ([6]; mouse M05, after a first dose) was 50.1%, the “mouse lymphocytes, % of total WBCs” value ([6]; mouse M05, after a first dose) was 2.0% and the “total lymphocytes, % of total WBCs” value ([6]; mouse M05, after a first dose) was 20.9%. The “human lymphocytes, % of total human WBCs” value ([6]; mouse M07, after a first dose) was 58.2%, the “mouse lymphocytes, % of total WBCs” value ([6]; mouse M07, after a first dose) was 20.4% and the “total lymphocytes, % of total WBCs” value ([6]; mouse M07, after a first dose) was 41.9%. The “human lymphocytes, % of total human WBCs” value ([6]; mouse M10, after a first dose) was 37.5%, the “mouse lymphocytes, % of total WBCs” value ([6]; mouse M10, after a first dose) was 5.2% and the “total lymphocytes, % of total WBCs” value ([6]; mouse M10, after a first dose) was 28.1%. The “human lymphocytes, % of total human WBCs” value [6, 11] was 58%, the “mouse lymphocytes, % of total WBCs” value [6, 11] was 5.7% and the “total lymphocytes, % of total WBCs” value [6, 11] was 32%.
